Measured values as given in patent EP1285918A1, “C7 Ester substituted taxanes as antitumor agents” (Florida State University Research Foundation, Inc., priority 2001, dated 2003).
Read-outs that look alike come from different tables or passages of the source.

Legend:
HCT116 = assay: In Vitro cytotoxicity measured by the cell colony formation assay; type: cell-based; settings: Homo sapiens, HCT-116; 72 h drug incubation, colonies counted after 7 days; concentration producing 50% inhibition of colony formation; read-out: IN VITRO ID 50 (nm) HCT116
[1] = test system: HCT116 human colon carcinoma xenograft; settings: 18 mg/kg i.v. qd x 5, 10 mice/group, study end Day 60
From the text: Six groups consisting of ten mice in each group were made up of female Nu/Nu mice (8-9 weeks of age; implanted with 1 mm^3 HCT116 human […] carcinoma fragments in the flank). Another six groups consisting of ten mice in each group were made up of male Nu/Nu mice (6-7 weeks of age; implanted with 1 mm^3 HCT116 human […] carcinoma fragments in the flank). […] The study was terminated on Day 60.
The results are summarized in Table 19 for the female mice and Table 20 for the male mice. Included are mean days of survival (MDS), number of toxic deaths, number of survivors, number of complete or partial responses, and number with stable disease. The mean days of survival is the number of days after which an […] neoplasm reached a size of 1.5 g and the animal was euthanized. A complete response is obtained if the tumor is not palpable at the end of the study. A partial response is obtained if the tumor shrinks to a size smaller than its size on Day 1 of the study. […]

[2] = test system: SKMES human lung cancer xenograft
Method: Female Nu/Nu mice (6-8 weeks of age; implanted with 1 mm^3 SKMES lung carcinoma fragments in the flank) were sorted into treatment groups of six mice each. […] Treatment was administered as a single bolus on Day 1, and the study was terminated on Day 62.
The mean days of survival is the number of days after which a SKMES neoplasm reached a size of 2.0 g and the animal was euthanized. A complete response is obtained if the tumor is not palpable at the end of the study. A partial response is obtained if the tumor shrinks to a size smaller than its size on Day 1 of the study.

[3] = 40 mg/kg single oral bolus Day 1, 6 mice/group, study end Day 62

| Structure (SMILES) | IC50 (HCT116) [nM] | Complete Responses ([1]; female mice) | Partial Responses ([1]; female mice) | Stable Disease ([1]; female mice) | Survivors ([1]; female mice) | Toxic Deaths ([1]; female mice) | Complete Responses ([1]; male mice) | Partial Responses ([1]; male mice) | Stable Disease ([1]; male mice) | Survivors ([1]; male mice) | Toxic Deaths ([1]; male mice) | % Total Response [2, 3] [%] | Complete Responses [2, 3] | Partial Responses [2, 3] | Stable Disease [2, 3] | Survivors [2, 3] | Toxic Deaths [2, 3] | MDS (n) ([2]; 40 mg/kg single oral bolus Day 1, 6 mice/group, study end Day 62, days until tumor reached 2.0 g) | activity ([2]; SKMES, Taxol orally 40 mg/kg single bolus (Group 10)) |
| --- | --- | --- | --- | --- | --- | --- | --- | --- | --- | --- | --- | --- | --- | --- | --- | --- | --- | --- | --- |
| CCC(=O)O[C@H]1C[C@H]2OC[C@@]2(OC(C)=O)[C@H]2[C@H](OC(=O)c3ccccc3)[C@]3(O)C[C@H](OC(=O)[C@H](O)[C@@H](NC(=O)OC(C)(C)C)c4cccs4)C(C)=C([C@@H](O)C(=O)[C@]12C)C3(C)C [Compound 1418] | < 1 | – | – | – | – | – | – | – | – | – | – | – | – | – | – | – | – | – | – |
| CC(=O)O[C@H]1C(=O)[C@@]2(C)[C@H]([C@H](OC(=O)c3ccccc3)[C@]3(O)C[C@H](OC(=O)[C@H](O)[C@@H](NC(=O)c4ccccc4)c4ccccc4)C(C)=C1C3(C)C)[C@]1(OC(C)=O)CO[C@@H]1C[C@@H]2O [Taxol, paclitaxel, reference compound] | 2.1 | 4 | 1 | 1 | 6 | 1 | 1 | 2 | 1 | 4 | 0 | 0 | 0 | 0 | 0 | 0 | 1 | 9.2±1.4 (5) days | not active |
| CC(=O)O[C@@]12CO[C@@H]1C[C@H](O)[C@@]1(C)C(=O)[C@H](O)C3=C(C)[C@@H](OC(=O)[C@H](O)[C@@H](NC(=O)OC(C)(C)C)c4ccccc4)C[C@@](O)([C@@H](OC(=O)c4ccccc4)[C@H]21)C3(C)C [docetaxel, reference compound] | 0.6 | – | – | – | – | – | – | – | – | – | – | – | – | – | – | – | – | – | – |
